From publication PMC10247784, “Physiological activation of human and mouse bitter taste receptors by bile acids” (Communications Biology, 2023)

Biological target: T1, mouse Tas2r108 (Mus musculus, UniProt Q9JKT3)
T1 construct: expressed in transfected cells; host or cells: HEK293T-Gα16gust44
T1 sequence (Q9JKT3 1-297): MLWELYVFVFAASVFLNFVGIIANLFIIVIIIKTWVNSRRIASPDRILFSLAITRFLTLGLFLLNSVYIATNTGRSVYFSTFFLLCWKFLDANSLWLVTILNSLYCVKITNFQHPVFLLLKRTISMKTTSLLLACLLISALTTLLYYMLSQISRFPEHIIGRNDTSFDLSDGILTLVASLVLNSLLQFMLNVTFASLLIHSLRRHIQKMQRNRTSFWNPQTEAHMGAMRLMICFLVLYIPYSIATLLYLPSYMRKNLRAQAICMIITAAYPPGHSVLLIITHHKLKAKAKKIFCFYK
Test: Calcium imaging assay (FLIPR), HEK293T-Gα16gust44 cells transfected with mouse Tas2r108
Type: cell-based
Protocol: This set of bile acids was chosen because of their commercial availability in high purities, their diversity within the class of bile acids and their previous detection and quantitation in human blood. Stock solutions were prepared in DMSO.
As basal growth medium for the HEK293T-Gα16gust44 cell line[17],[59] served Dulbecco’s modified eagle medium (DMEM) (Thermo Fisher Scientific, Darmstadt, Germany) supplemented with 10 % fetal bovine serum (Sigma-Aldrich, Steinheim, Germany), 2 mM L-glutamine (Sigma-Aldrich, Steinheim, Germany), 100 units/ml penicillin (Sigma Aldrich, Steinheim, Germany) and 100 µg/ml streptomycin (Sigma Aldrich, Steinheim, Germany). Growth conditions were 37 °C, 5 % CO2 and saturated air-humidity[60].
HEK293T-Gα16gust44 cells were seeded on poly-D-lysine (10 µg/ml) coated 96-well plates to reach a confluence of 40-60 % the next day. For transient transfection 150 ng of plasmid DNA containing the receptor of interest and 0.3 µl lipofectamine 2000 (Thermo Fisher Scientific, Darmstadt, Germany) per well were used and transfection took place according to the manual of lipofectamine 2000. […] The empty vector DNA (mock) was transfected as negative control[14],[41].
Cells were loaded using the calcium-sensitive fluorescent dye Fluo-4-AM (Abcam, Cambridge, Great Britain) in the presence of 2.5 mM probenecid (Sigma-Aldrich, Steinheim, Germany) the day after transfection[13],[41]. 1 h after loading, cells were washed with C1 buffer using a BioTek Cell Washer, incubated in the dark for half an hour and washed again. For automated agonist application and measurement of fluorescence changes, a FLIPR^TETRA device (Molecular Devices, San José, United States) was used. Viability of cells was tested by application of 100 nM Somatostatin 14 (Bachem, Bubendorf, Switzerland)[42].
Measured data were negative control corrected by subtracting the signal of the mock-transfected cells and exported to Microsoft Excel using the FLIPR software ScreenWorks 4.2. In Microsoft Excel software, standardization of maximum fluorescence intensities to the basal fluorescence and normalization to the buffer-only control was done to calculate the relative fluorescence changes (ΔF/F).
Initial screening experiments performed in duplicate wells were confirmed by at least one replication and representative traces were selected for display. All dose-response relationships were determined by three independent experiments (biological replicates) performed in duplicates (technical replicates). Threshold concentrations, defined as lowest substance concentrations leading to statistically significant elevated fluorescence changes in receptor-transfected cells compared with empty vector-transfected cells, were determined using SigmaPlot with Student’s t-test to evaluate statistical significance (p < 0.01).

RLU (Time 0 s): 0 RLU
RLU (Time 2 s): 10.4901 RLU
RLU (Time 4 s): 7.695 RLU
RLU (Time 6 s): 13.3996 RLU
RLU (Time 8 s): 21.0752 RLU
RLU (Time 12 s): 15.5762 RLU
RLU (Time 14 s): 3.43 RLU
RLU (Time 16 s): -9.281 RLU
RLU (Time 18 s): 0.8467 RLU
RLU (Time 137.562 s): 460.71 RLU
RLU (Time 143.562 s): 496.814 RLU
RLU (Time 149.562 s): 503.436 RLU
RLU (Time 155.562 s): 499.263 RLU
RLU (Time 161.562 s): 506.022 RLU
RLU (Time 167.562 s): 509.176 RLU
RLU (Time 173.562 s): 514.108 RLU
RLU (Time 179.562 s): 522.581 RLU
RLU (Time 185.562 s): 531.86 RLU
RLU (Time 191.562 s): 528.694 RLU
RLU (Time 197.562 s): 533.421 RLU
RLU (Time 203.562 s): 538.761 RLU
RLU (Time 209.562 s): 521.511 RLU
RLU (Time 215.562 s): 533.378 RLU
RLU (Time 221.562 s): 492.546 RLU
RLU (Time 227.562 s): 477.486 RLU
RLU (Time 233.562 s): 488.911 RLU
RLU (Time 239.562 s): 493.745 RLU
RLU (Time 245.562 s): 495.953 RLU
RLU (Time 293.562 s): 458.186 RLU
RLU (Time 299.562 s): 441.037 RLU
RLU (Time 305.562 s): 416.756 RLU
RLU (Time 311.562 s): 430.852 RLU
RLU (Time 317.562 s): 450.794 RLU
RLU (Time 323.562 s): 427.048 RLU
RLU (Time 329.562 s): 431.797 RLU
RLU (Time 335.562 s): 432.3 RLU
RLU (Time 341.562 s): 422.32 RLU
RLU (Time 347.562 s): 429.258 RLU
RLU (Time 353.562 s): 427.233 RLU
RLU (Time 359.562 s): 399.693 RLU
Activation threshold concentration Tas2r108 (p < 0.01 vs empty vector): 10 µM
RLU (time 18.797 s): 15.4 RLU
RLU (time 20.797 s): -4.333 RLU
RLU (time 22.797 s): -28.7534 RLU
RLU (time 24.797 s): -22.8768 RLU
RLU (time 26.797 s): 16.5718 RLU
RLU (time 28.797 s): 18.9437 RLU
RLU (time 30.797 s): 58.8166 RLU
RLU (time 32.797 s): 83.6402 RLU
RLU (time 34.797 s): 79.9664 RLU
RLU (time 36.797 s): 112.495 RLU
RLU (time 38.797 s): 144 RLU
RLU (time 40.797 s): 169.562 RLU
RLU (time 42.797 s): 181.196 RLU
RLU (time 44.797 s): 204.676 RLU
RLU (time 46.797 s): 240.06 RLU
RLU (time 48.797 s): 220.167 RLU
RLU (time 50.797 s): 217.063 RLU
RLU (time 52.797 s): 250.29 RLU
RLU (time 54.797 s): 263.514 RLU
RLU (time 56.797 s): 298.678 RLU
RLU (time 58.797 s): 286.664 RLU
RLU (time 60.797 s): 326.636 RLU
RLU (time 62.797 s): 300.232 RLU
RLU (time 64.797 s): 322.977 RLU
RLU (time 66.797 s): 299.438 RLU
RLU (time 68.797 s): 333.279 RLU
RLU (time 70.797 s): 356.797 RLU
RLU (time 72.797 s): 351.722 RLU
RLU (time 74.797 s): 354.974 RLU
RLU (time 76.797 s): 350.201 RLU
RLU (time 78.797 s): 373.335 RLU
RLU (time 80.797 s): 363.865 RLU
RLU (time 82.797 s): 378.202 RLU
RLU (time 84.797 s): 377.793 RLU
RLU (time 86.797 s): 374.495 RLU
RLU (time 88.797 s): 427.432 RLU
RLU (time 90.797 s): 391.234 RLU
RLU (time 92.797 s): 431.574 RLU
RLU (time 94.797 s): 429.345 RLU
RLU (time 96.797 s): 437.253 RLU
RLU (time 98.797 s): 431.746 RLU
RLU (time 100.797 s): 440.351 RLU
RLU (time 102.797 s): 434.297 RLU
RLU (time 104.797 s): 432.91 RLU
RLU (time 106.797 s): 451.262 RLU
RLU (time 108.797 s): 460.201 RLU
RLU (time 110.797 s): 466.157 RLU
RLU (time 112.797 s): 486.092 RLU
RLU (time 114.797 s): 411.046 RLU
RLU (time 116.797 s): 482.073 RLU
RLU (time 118.797 s): 468.374 RLU
RLU (time 120.797 s): 468.931 RLU
RLU (time 122.797 s): 478.657 RLU
RLU (time 124.797 s): 472.922 RLU
RLU (time 126.797 s): 476.391 RLU
RLU (time 128.797 s): 502.505 RLU
RLU (time 130.797 s): 473.229 RLU
RLU (time 132.797 s): 511.515 RLU
RLU (time 134.797 s): 493.882 RLU
RLU (time 136.797 s): 440.117 RLU
Compound: C[C@H](CCC(=O)O)[C@H]1CC[C@H]2[C@@H]3CC[C@@H]4C[C@H](O)CC[C@]4(C)[C@H]3C[C@H](O)[C@]12C [Deoxycholic Acid, deoxycholic acid]
